In paper PMC10902378, “Effective engineering of a ketoreductase for the biocatalytic synthesis of an ipatasertib precursor” (Communications Chemistry, 2024):
Where a chain is given by its changes, count along the chain named. Names may count otherwise.

Legend:
Ssal-KRED [1] = molecular target: T1, Ssal-KRED (Sporobolomyces salmonicolor, UniProt Q9UUN9, F97W/A238K/L241M/M242W/Q245S/L316M/T342M); experiment: UV assay at […] nm, Michaelis-Menten fit; format: biochemical; settings: apparent; NADP+/iPrOH as hydride donor; purified His-tagged enzyme; read-out: app. KM
T1 construct: N-terminal 6xHis-tag, pET28b(+), purified; recombinant from E. coli
T1 sequence (Q9UUN9 2-343 F97W/A238K/L241M/M242W/Q245S/L316M/T342M): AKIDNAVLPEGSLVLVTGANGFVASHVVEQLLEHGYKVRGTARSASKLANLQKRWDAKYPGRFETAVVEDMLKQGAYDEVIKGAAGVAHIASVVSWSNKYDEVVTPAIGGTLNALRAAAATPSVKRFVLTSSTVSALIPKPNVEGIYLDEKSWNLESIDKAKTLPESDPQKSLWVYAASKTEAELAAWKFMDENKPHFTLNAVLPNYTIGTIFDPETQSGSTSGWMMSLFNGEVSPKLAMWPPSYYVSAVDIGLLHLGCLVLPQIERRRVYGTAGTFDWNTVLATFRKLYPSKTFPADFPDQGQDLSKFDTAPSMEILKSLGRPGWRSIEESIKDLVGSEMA

Ssal-KRED [2] = molecular target: T2, Ssal-KRED (Sporobolomyces salmonicolor, UniProt Q9UUN9, F97W/L241M/M242W/Q245S/L316M/T342M); experiment: UV assay at […] nm, Michaelis-Menten fit; format: biochemical; settings: apparent; NADP+/iPrOH as hydride donor; purified His-tagged enzyme; read-out: app. KM
T2 construct: N-terminal 6xHis-tag, pET28b(+), purified; recombinant from E. coli
T2 sequence (Q9UUN9 2-343 F97W/L241M/M242W/Q245S/L316M/T342M): T1 sequence (Q9UUN9 2-343 F97W/A238K/L241M/M242W/Q245S/L316M/T342M) with K237A

Ssal-KRED [3] = molecular target: T3, Ssal-KRED (Sporobolomyces salmonicolor, UniProt Q9UUN9, F97W/S224A/A238K/L241M/M242W/Q245S/Y246G/L316M/T342M); experiment: UV assay at […] nm, Michaelis-Menten fit; format: biochemical; settings: apparent; NADP+/iPrOH as hydride donor; purified His-tagged enzyme; read-out: app. KM
T3 construct: N-terminal 6xHis-tag, pET28b(+), purified; recombinant from E. coli
T3 sequence (Q9UUN9 2-343 F97W/S224A/A238K/L241M/M242W/Q245S/Y246G/L316M/T342M): T1 sequence (Q9UUN9 2-343 F97W/A238K/L241M/M242W/Q245S/L316M/T342M) with S223A, Y245G

Ssal-KRED [4] = molecular target: T4, Ssal-KRED (Sporobolomyces salmonicolor, UniProt Q9UUN9); experiment: UV assay at […] nm, Michaelis-Menten fit; format: biochemical; settings: apparent; NADP+/iPrOH as hydride donor; purified His-tagged enzyme; read-out: app. KM
T4 construct: N-terminal 6xHis-tag, pET28b(+), purified; recombinant from E. coli
T4 sequence (Q9UUN9 2-343): T1 sequence (Q9UUN9 2-343 F97W/A238K/L241M/M242W/Q245S/L316M/T342M) with W96F, K237A, M240L, W241M, S244Q, M315L, M341T

Ssal-KRED [5] = molecular target: T5, Ssal-KRED (Sporobolomyces salmonicolor, UniProt Q9UUN9, F97W/T134V/S224A/A238K/L241M/M242W/Q245S/Y246G/L316M/T342M); experiment: UV assay at […] nm, Michaelis-Menten fit; format: biochemical; settings: apparent; NADP+/iPrOH as hydride donor; purified His-tagged enzyme; read-out: app. KM
T5 construct: N-terminal 6xHis-tag, pET28b(+), purified; recombinant from E. coli
T5 sequence (Q9UUN9 2-343 F97W/T134V/S224A/A238K/L241M/M242W/Q245S/Y246G/L316M/T342M): T1 sequence (Q9UUN9 2-343 F97W/A238K/L241M/M242W/Q245S/L316M/T342M) with T133V, S223A, Y245G

Ssal-KRED [6] = molecular target: T6, Ssal-KRED (Sporobolomyces salmonicolor, UniProt Q9UUN9, F97W/L241M/M242W/Q245S); experiment: UV assay at […] nm, Michaelis-Menten fit; format: biochemical; settings: apparent; NADP+/iPrOH as hydride donor; purified His-tagged enzyme; read-out: app. KM
T6 construct: N-terminal 6xHis-tag, pET28b(+), purified; recombinant from E. coli
T6 sequence (Q9UUN9 2-343 F97W/L241M/M242W/Q245S): T1 sequence (Q9UUN9 2-343 F97W/A238K/L241M/M242W/Q245S/L316M/T342M) with K237A, M315L, M341T

purified protein = substrate: C[C@@H]1CC(=O)c2ncnc(N3CCN(C(=O)OC(C)(C)C)CC3)c21; experiment: purified protein; format: biochemical, Sporobolomyces salmonicolor; settings: apparent; NADP+/iPrOH as hydride donor; purified His-tagged enzyme; substrate saturation was not reached

With `C[C@@H]1CC(=O)c2ncnc(N3CCN(C(=O)OC(C)(C)C)CC3)c21` [1a, ketone 1a] the Km (Ssal-KRED [1]) was 300 ± 7.9 µM, the Km (Ssal-KRED [2]) was 175 ± 9.9 µM and the Km (Ssal-KRED [3]) was 472 ± 34.6 µM. It also gave a Km (Ssal-KRED [4]) of 11.9 ± 1.1 µM, a Km (Ssal-KRED [5]) of 144 ± 5.5 µM and a Km (Ssal-KRED [6]) of 163 ± 7.8 µM.

B1: Ssal-KRED (Sporobolomyces salmonicolor; A238K/F97W/L241M/L316M/M242W/Q245S/T342M/Y246G) (protein)
chain: T1 sequence (Q9UUN9 2-343 F97W/A238K/L241M/M242W/Q245S/L316M/T342M) with Y245G
notes: N-terminal 6xHis-tag, pET28b(+), purified; recombinant from E. coli
In the case of B1, the Km (purified protein) is reported as 1668 ± 103 µM, the kcat (purified protein) is reported as 0.763 ± 0.04 s⁻¹ and the kcat/Km (purified protein) is reported as 458 M⁻¹ s⁻¹.
